Reference: publication PMC5995442, “Drug discovery with an RBM20 dependent titin splice reporter identifies cardenolides as lead structures to improve cardiac filling” (PLoS ONE, 2018)
“Also recorded” adds a separate entry of the source. Where two headings read alike, the source gives them in different places.

Experiments:
[1] = test system: titin minigene TTN Ex241-43 transcripts; test: RT-PCR / RT-qPCR of transcripts from titin minigene TTN Ex241-43 (I96-98); type: cell-based, human
Description: The objective of our study was to identify and evaluate small molecules with the potential to modulate alternative splicing via an unbiased chemical high-throughput screening approach. Using transient transfection of a dual luciferase splicing reporter assay (DLR-assay) in HEK293.EBNA cells and a RBM20 expression construct, we investigated >34.000 substances for their effect on alternative exon exclusion from our RBM20 dependent titin PEVK4-13 splicing reporter. For the primary screen (pilot screen), each compound was tested at 10 μM (single point) and compared to an untreated control. Positive hits leading to differential exon usage (exceeding three standard deviations) were picked for independent validation in 9 serial 2-fold dilutions starting at 20 μM. Compounds that produced a concentration dependent effect were validated manually in the 96-well format and cytotoxicity was evaluated. To minimize the detection of false positives, we excluded compounds with structural homology to each luciferase’s natural substrate. To determine the EC50 of candidates we calculated dose response curves using a non-linear least-squares fitting routine available within the GNUPLOT package (accessible online: http://ic50.tk/index.html). We evaluated the effect on splice activity on the RNA level by RT-qPCR of isoforms generated from a titin minigene containing TTN Ex241-43 (corresponding to TTN I-band exon I96-98) in the presence of the potential splice modulators. […]
Total RNA from HEK293.EBNA cells was extracted using RNeasy Micro Kit (Qiagen, Hilden, Germany) according to the manufacturer’s instructions. […] Quantitative RT-PCR was performed using SYBRGreen master mix (Applied Biosystems by Thermo Fisher Scientific Inc., USA) on a 7900 HT RT-cycler (Applied Biosystems by Thermo Fisher Scientific, Inc., USA). […] To quantification gene expression, we used the ΔΔCT method normalized to 18S or to the alternative transcripts generated from the splicing reporter. PSI values were calculated as ratio of unspliced and spliced reporter transcript. […]

[2] = Dual luciferase splicing reporter assay (DLR assay), RBM20 co-transfected; type: cell-based, human; details: human; RBM20 titin reporter, N = 3; read-out: cell viability below which the splice reporter readout is affected
Description: (§1) The objective of our study was to identify and evaluate small molecules with the potential to modulate alternative splicing via an unbiased chemical high-throughput screening approach. Using transient transfection of a dual luciferase splicing reporter assay (DLR-assay) in HEK293.EBNA cells and a RBM20 expression construct, we investigated >34.000 substances for their effect on alternative exon exclusion from our RBM20 dependent titin PEVK4-13 splicing reporter. For the primary screen (pilot screen), each compound was tested at 10 μM (single point) and compared to an untreated control. Positive hits leading to differential exon usage (exceeding three standard deviations) were picked for independent validation in 9 serial 2-fold dilutions starting at 20 μM. Compounds that produced a concentration dependent effect were validated manually in the 96-well format and cytotoxicity was evaluated. To minimize the detection of false positives, we excluded compounds with structural homology to each luciferase’s natural substrate. To determine the EC50 of candidates we calculated dose response curves using a non-linear least-squares fitting routine available within the GNUPLOT package (accessible online: http://ic50.tk/index.html). […] Compounds that produced a concentration depend effect in the DLR-assay and altered the alternative transcript levels were regarded as validated alternative splicing modulators.
(§2) Cells transfected were at a confluency of 50-60%.
(§3) 5000 HEK293.EBNA cells were seeded in clear bottom, white 384-well plates (Corning by Sigma-Aldrich Chemie GmbH, Munich, Germany) using an automated cell dispenser (Biotek, Bad Friedrichshall, Germany). 24 h after cell seeding the expression plasmids were delivered using a Freedom EVO® robotic workstation (TECAN, Maennedorf, Switzerland) equipped with a MultiChannel Arm™. Cells were transiently transfected with 45 ng plasmid DNA ([…] and 40 ng RBM20 or 24 ng of the negative control pcDNA3.1 ad 45 ng with bacterial expression plasmid pBSSK). Compounds were added to the plates the following day using the same robotic platform. Luciferase activity was determined using Dual-Glo® Luciferase Assay System (Promega GmbH, Mannheim, Germany) on an Infinite® M1000 Pro (TECAN, Maennedorf, Switzerland) plate reader around 60 hours post-transfection. Assay robustness was evaluated by calculation z’ scores using an online tool provided by the Screening Unit at FMP Berlin (http://www.screeningunit-fmp.net/tools/z-prime.php).

[3] = test system: RBM20 dependent titin PEVK4-13 splicing reporter; test: as above; type: cell-based, human; details: for IC50: Homo sapiens
Description: as §1, §2, §3

HEK293.EBNA cells = test: Cell viability, resazurin based staining (PrestoBlue); parameters: species or system human; details: for IC50: Homo sapiens, HEK293-EBNA
Description: as §2

RBM20 protein levels = test: RBM20 protein expression by immunoblot in co-transfected HEK293 cells; type: cell-based, human; details: 0.235 μM digoxin, co-transfected HEK293 cells
Protocol: For immunodetection, HEK293.EBNA samples were harvested by rinsing them of the cell culture substrate using PBS at 37°C and subsequently used for downstream processing or snap frozen in liquid nitrogen. For protein extraction samples were suspended in RIPA buffer (50 mM Tris pH 8.0, 150 mM NaCl, 1% NP-40, 0.25% sodium deoxycholate, 1.0 mM EDTA; 0.1% SDS) and lysed via sonication with 20 bursts at 70% energy using a VialTweeter (Hielscher Ultrasonics GmbH, Teltow, Germany). Protein concentration was estimated after 20’ precipitation of cell debris at 13,000xg for 20 min at 4°C using BCA assay (Life Technologies GmbH, Darmstadt, Germany [23225]). Samples were kept cool at any time. Lysates were separated by SDS-PAGE [14] and blotted on PVDF membranes. Blotted antigens were probed with mouse anti-c-myc 9E10 ([M5546], Sigma-Aldrich Chemie GmbH, Munich, Germany) tag antibody at 1:2000 and detected using a sheep anti-mouse IgG-HRP (GE Healthcare Europe GmbH, Freiburg, Germany [NA9310V]) conjugate 1:5000 follow by visualization with AceGlow™ (VWR PEQL37) on a FUSION FX7 CCD camera system (Vilber Lourmat Deutschland GmbH, Eberhardzell, Germany).

in vitro = details: human
Protocol: (§4) For transfection 25000 cells/well were seeded on 96-well Nunc F96 MicroWell™ plates (Life Technologies GmbH, Darmstadt, Germany) and transfected with a total of 200 ng of plasmid DNA of which 1 ng was splice reporter plus a corresponding amount of RBM20, RBFOX1 or control plasmid (pcDNA3.1) in a 20x molar excess. To deliver plasmid DNA we used the 40 kDa linear polyethylenimine (Polysciences Europe GmbH, Hirschberg, Germany) at a 1:3 ratio (DNA:PEI40). Cells transfected were at a confluency of 50-60%. Compounds were applied 24 h post-transfection at a final DMSO concentration of 1%. Luciferase activity was measured 60 hours post-transfection using the Dual-Luciferase® Reporter Assay System (Promega GmbH, Mannheim, Germany) on an Infinite® M200 Pro (TECAN, Maennedorf, Switzerland) plate reader. Ratios of firefly to renilla luciferase activity were normalized to the control (pcDNA3.1) without the splicing factor expression construct. Cell viability was measured 60 h post-transfection using a resazurin based staining of metabolically active cells (PrestoBlue®, Life Technologies GmbH, Darmstadt, Germany).
(§5) To evaluate the specificity of the splice effect, we generated an independent splice reporter based on formin-like 3 (FMNL3) and its splice factor RBFOX1 (S5 Fig). […] To exclude an unspecific effect of cell death on RBM20 dependent splicing, we used the steroidal homolog digitonin to induce cell death.

[4] = test system: RBFOX1 dependent splicing of FMNL3; test: cells
Protocol: as §4, §5

[5] = target: Na+/K+ ATPase human erythrocytes; parameters: method as in PMID 11072868; details: cited from earlier work
[6] = HEK293 cells, 60 h post-transfection, RBM20/titin reporter transfected, read-out: Viability IC50

| Structure (SMILES) | effect on splicing on the mRNA level (in words) ([1]; RT-PCR of minigene, HEK293) | viability at 36 h [2] [%] | effect on RBM20-mediated titin splicing (in words) ([3]; DLR assay, HEK293) | IC50 ([3]; FLuc/RLuc ratio, HEK293 cells, 96-well format, inset table of figure, read-out: Splicing IC50) [µM] | IC50 (HEK293.EBNA cells; [6]) [µM] | RBM20 protein levels reduced to (RBM20 protein levels) [%] | intron retention / mRNA maturation (in words) ([1]; HEK293 transfected with RBM20 and minigene I96-98) | viability at 36 h (in vitro) [%] | IC50 ([4]; Homo sapiens, HEK293, read-out: FMNL3/RBFOX1 Splicing IC50, FMNL3 exons 25-26 reporter co-transfected with RBFOX1, HEK293) [µM] | effect on FMNL3 splicing (in words) ([4]; concentrations of up to 20x the half-maximal lethal dose) | Splicing Hill Coeff. [3] | effect on RBM20-mediated titin splicing (in words) [3] | IC50 ([3]; HEK293, read-out: IC50 Splicing HEK293 cells) [µM] | IC50 (HEK293.EBNA cells; HEK293, read-out: IC50 viability (half-maximal lethal dose)) [µM] | Viability Hill Coeff. (HEK293.EBNA cells; dose response fit, head prints [μM], fits IC50 only) | Viability Max (HEK293.EBNA cells; fit maximum of relative viability, head prints [μM], fits IC50 only) | IC50 [5] [µM] |
| --- | --- | --- | --- | --- | --- | --- | --- | --- | --- | --- | --- | --- | --- | --- | --- | --- | --- |
| C[C@@H]1CC[C@@]2(OC1)O[C@H]1[C@@H](O)[C@H]3[C@@H]4CC[C@H]5C[C@@H](O[C@@H]6O[C@H](CO)[C@H](O[C@@H]7O[C@H](CO)[C@@H](O)[C@H](O[C@@H]8OC[C@@H](O)[C@H](O)[C@H]8O)[C@H]7O[C@@H]7O[C@H](CO)[C@H](O)[C@H](O[C@@H]8O[C@H](CO)[C@@H](O)[C@H](O)[C@H]8O)[C@H]7O)[C@H](O)[C@H]6O)[C@H](O)C[C@]5(C)[C@H]4CC[C@]3(C)[C@H]1[C@@H]2C [Digitonin] | no effect on the mRNA level | < 20 | little effect at the highest doses only; also recorded: do not interfere with RBM20 dependent splicing | 14.1 ± 3.98 | 2.67 ± 0.212 |  |  |  |  |  |  |  |  |  |  |  |  |
| C[C@H]1O[C@@H](O[C@H]2[C@@H](O)C[C@H](O[C@H]3[C@@H](O)C[C@H](O[C@H]4CC[C@@]5(C)[C@H](CC[C@@H]6[C@@H]5C[C@@H](O)[C@]5(C)[C@@H](C7=CC(=O)OC7)CC[C@]65O)C4)O[C@@H]3C)O[C@@H]2C)C[C@H](O)[C@@H]1O [Digoxin] |  |  |  |  | 0.132 ± 0.0066 | 10 | does not cause intron retention | < 30 | 2.6 | not affected | 2.8711 ± 0.6588 | efficiently inhibit RBM20 mediated splicing | 0.153 | 0.132 | 2.2906 ± 0.2256 | 1.0089 ± 0.0119 | 0.00039 |
